Source: patent US12516049B2, “Sulfonylurea ring substituted monocyclic β-lactam antibiotics” (priority 2019, dated 2026)
In brackets after ≈: the same amount, converted by molar mass.

How the values were obtained:
[1] = system: Klebsiella pneumoniae ATCC-BAA 2470; test: Mouse thigh muscle infection model, Klebsiella pneumoniae ATCC-BAA 2470; assay type: in vivo; conditions: immunodeficient female CD-1 mice; Klebsiella pneumoniae ATCC-BAA 2470 9.5E+06 CFU/mouse; 200 mg/kg every 2 h from 2 h; end point 24 h
Experimental: 15 female CD-1 mice were divided into 5 cages, 3 mice per cage; the day of infection was counted as day 0.
Immunosuppressant cyclophosphamide 150 mg/kg were injected intraperitoneally on Day-4, and immunosuppressant cyclophosphamide 100 mg/kg was injected intraperitoneally again on the first day to obtain immunodeficient mice.
The strain Klebsiella pneumoniae ATCC-BAA 2470 was recovered on an MHA plate on the first day. The recovered colonies were picked and dissolved in sterile saline to prepare bacterial solution with a concentration of 9.5E+07 CFU/mL for use in mouse thigh muscle infection. The infection starting time was counted as 0 h, and 100 μL of bacterial solution is injected into the thigh muscle of each mouse at 0 h, that is, the inoculation amount is 9.5E+06 CFU/mouse. 2 h after infection, the drugs were administered according to the experimental scheme. The specific experimental scheme is as follows (see Table 5): […]
(2) 2 h after infection: Mice in the second to third cages were administered separately at a volume of 10 mL/kg according to the mouse body weight. […] The amount of bacteria loaded in the thigh muscle tissue of the mouse was counted, and the experimental results were shown in Table 6.

[2] = system: K.p 115004; test: MIC, two-fold agar dilution, clinical isolate; assay type: cell-based
Experimental: (§1) The minimum inhibitory concentration (MIC) of the compound and combination with β-lactamase (MBLs) inhibitors against clinically isolated carbapenem-resistant enterobacteriaceae was determined by the two-fold agar dilution method to determine the activity of the compound to be tested against strains producing MBLs. Antibiotics and enzyme inhibitors were weighed separately and dissolved in sterile ultrapure water or dimethyl sulfoxide to prepare mother liquor, MHA medium was prepared, pH was adjusted to 7.2-7.4, and it was sterilized at 121° C. for 15 minutes and placed in a 55° C. water bath for heat preservation. The mother liquor was diluted to the concentration to be tested by double dilution method, an inoculum liquid was prepared by direct bacterial suspension method, 1 mL of the prepared bacteria solution was withdrawn and putted into the inoculation tube, and a positioning needle and an inoculation needle were installed. A bacterial multi-point inoculator was started for inoculation. After the bacterial solution was absorbed by the agar, the plate was placed upside down in an incubator at 37° C. for 16-20 hours, and the results were observed. The average of three tests was taken.

[3] = system: K.p CRE11; test: MIC, two-fold agar dilution, clinical isolate; assay type: cell-based
Experimental: as §1

[4] = system: Escherichia coli ATCC BAA-2523 (OXA-48); test: MIC, micro-liquid dilution (CLSI); assay type: cell-based; conditions: ATCCBAA2523
Experimental: (§2) Three strains of Klebsiella pneumonia, ATCC BAA-205 (TEM-1/SHV-1/SHV-12), ATCC BAA-1705 (KPC-2), ATCC BAA-2470 (NDM-1), Enterobacter cloacae ATCC BAA-1143 (AmpC), two strains of Escherichia coli ATCC BAA-2523 (OXA-48), ATCC 25922 were used to determine the minimum inhibitory concentration (MIC) of each of the compounds by micro-liquid dilution method according to the Institute of Clinical and Laboratory Standard (CLSI) requirements. […]. The plate was placed upside down at 37° C. and the MIC value was read after 20-24 h of incubation, and the lowest drug concentration that inhibited the growth of bacteria was set as MIC. Colony-Forming Units (CFU) refer to the total number of bacterial colonies per unit volume.

[5] = system: Klebsiella pneumonia ATCC BAA-205 (TEM-1/SHV-1/SHV-12); test: MIC, micro-liquid dilution (CLSI); assay type: cell-based; conditions: Klebsiella pneumoniae, ATCCBAA205; K. pneumonia ATCC BAA-205, Class A (TEM-1/SHV-1/SHV-12); 20-24 h, 37° C.
Experimental: as §2

[6] = system: Enterobacter cloacae ATCC BAA-1143 (AmpC); test: MIC, micro-liquid dilution (CLSI); assay type: cell-based; conditions: ATCCBAA1143, E. cloacae ATCC BAA-1143, Class C (AmpC), 20-24 h, 37° C.
Experimental: as §2

[7] = system: Klebsiella pneumonia ATCC BAA-1705 (KPC-2); test: MIC, micro-liquid dilution (CLSI); assay type: cell-based; conditions: Klebsiella pneumoniae, ATCCBAA1705; K. pneumonia ATCC BAA-1705, Class A (KPC-2); 20-24 h, 37° C.
Experimental: as §2

[8] = system: Escherichia coli ATCC 25922; test: MIC, micro-liquid dilution (CLSI); assay type: cell-based; conditions: ATCC25922, E. coli ATCC 25922, 20-24 h, 37° C.
Experimental: as §2

[9] = system: Klebsiella pneumonia ATCC BAA-2470 (NDM-1); test: MIC, micro-liquid dilution (CLSI); assay type: cell-based; conditions: Klebsiella pneumoniae, ATCCBAA2470; K. pneumonia ATCC BAA-2470, Class B (NDM-1); 20-24 h, 37° C.
Experimental: as §2

[10] = system: clinically isolated carbapenem-resistant enterobacteriaceae; assay type: cell-based; conditions: single drug; panel of 26 strains of Table 2
Experimental: as §1, with “Antibiotics and enzyme inhibitors were weighed separately and dissolved in sterile ultrapure water or dimethyl sulfoxide to prepare mother liquor, MHA medium was prepared, pH was adjusted to 7.2-7.4, and it was sterilized at 121° C. for 15 minutes and placed in a 55° C. water bath for heat preservation.” left out

[11] = system: E.coli 115101; test: MIC, two-fold agar dilution, clinical isolate; assay type: cell-based; conditions: Escherichia coli; E.coli 115101; single drug; average of three tests; read-out: MIC
Experimental: as §1, with “Antibiotics and enzyme inhibitors were weighed separately and dissolved in sterile ultrapure water or dimethyl sulfoxide to prepare mother liquor, MHA medium was prepared, pH was adjusted to 7.2-7.4, and it was sterilized at 121° C. for 15 minutes and placed in a 55° C. water bath for heat preservation.” left out

[12] = system: K.p HX30; test: MIC, two-fold agar dilution, clinical isolate; assay type: cell-based; conditions: K.p HX30; single drug; average of three tests; read-out: MIC
Experimental: as §1, with “Antibiotics and enzyme inhibitors were weighed separately and dissolved in sterile ultrapure water or dimethyl sulfoxide to prepare mother liquor, MHA medium was prepared, pH was adjusted to 7.2-7.4, and it was sterilized at 121° C. for 15 minutes and placed in a 55° C. water bath for heat preservation.” left out

[13] = system: E.coli 115105; test: MIC, two-fold agar dilution, clinical isolate; assay type: cell-based; conditions: Escherichia coli, single drug, average of three tests
Experimental: as §1, with “Antibiotics and enzyme inhibitors were weighed separately and dissolved in sterile ultrapure water or dimethyl sulfoxide to prepare mother liquor, MHA medium was prepared, pH was adjusted to 7.2-7.4, and it was sterilized at 121° C. for 15 minutes and placed in a 55° C. water bath for heat preservation.” left out

SMILES: NC[C@@H]1CN(C[C@@H]2[C@H](NC(=O)/C(=N\OC3(C(=O)O)CC3)c3csc(N)n3)C(=O)N2S(=O)(=O)O)S(=O)(=O)N1 [Compound 4]
- Average CFU of the mouse (amount of bacteria loaded in thigh muscle tissue) [1]: 3.93E+06 CFU/mouse
- MIC [2]: 0.125 µg/mL
- MIC [3]: 0.125 µg/mL
- MIC [4]: 0.125 µg/mL (≈ 0.215 µM)
- MIC [5]: 0.5 µg/mL (≈ 0.858 µM)
- MIC [6]: 0.5 µg/mL (≈ 0.858 µM)
- MIC [7]: 1 µg/mL (≈ 1.72 µM)
- MIC [8]: 0.25 µg/mL (≈ 0.429 µM)
- MIC [9]: 0.25 µg/mL (≈ 0.429 µM)
- MIC50 [10]: 0.125 µg/mL
- MIC90 [10]: 1 µg/mL
- MIC [11]: 0.5 µg/mL
- MIC [12]: 0.5 µg/mL
- MIC [13]: 1 µg/mL
